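The compound was tested at five concentrations on cells cultured in 96-well plates, with a 48-hour exposure period. GI50 = concentration required for 50% inhibition of growth.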 Active and inactive are the calls of the source. Rule as the data show it: active = GI50 up to about 1.1 µM and inactive = higher.
How the values were obtained:
Test in all cases: NCI tumour cell line growth inhibition, 48 h
[1] = tested on: SK-MEL-2
[2] = tested on: SW-620
[3] = tested on: SF-268
[4] = tested on: NCI-H23
[5] = tested on: TK-10
[6] = tested on: HCT-15
[7] = tested on: SK-OV-3
[8] = tested on: COLO 205
[9] = tested on: SN12C
[10] = tested on: DMS-114
[11] = tested on: SNB-75
[12] = tested on: RPMI-8226
[13] = tested on: KM-20L2
[14] = tested on: SK-MEL-5
[15] = tested on: IGROV-1
[16] = tested on: SK-MEL-28
[17] = tested on: UACC-62
[18] = tested on: KM12
[19] = tested on: SF-539
[20] = tested on: OVCAR-8
[21] = tested on: HCC 2998
[22] = tested on: XF498
[23] = tested on: SNB-78
[24] = tested on: A498
[25] = tested on: 786-0
[26] = tested on: LOX IMVI
[27] = tested on: HCT-116
[28] = tested on: UACC-257
[29] = tested on: CAKI-1
[30] = tested on: HOP-62
[31] = tested on: NCI-H522
[32] = tested on: DLD-1
[33] = tested on: LXFL 529
[34] = tested on: HT-29
[35] = tested on: ACHN
[36] = tested on: OVCAR-4
[37] = tested on: EKVX
[38] = tested on: NCI-H226
[39] = tested on: M19-MEL
[40] = tested on: MOLT-4
[41] = tested on: U-251
[42] = tested on: DMS-273
[43] = tested on: SNB-19
[44] = tested on: A549
[45] = tested on: NCI-H460
[46] = tested on: SR
[47] = tested on: OVCAR-3
[48] = tested on: HL-60
[49] = tested on: M14
[50] = tested on: K562
[51] = tested on: SF-295
[52] = tested on: UO-31
[53] = tested on: OVCAR-5
[54] = tested on: CCRF-CEM
[55] = tested on: HOP-18
[56] = tested on: Malme-3M
[57] = tested on: HOP-92
[58] = tested on: RXF 393

For `[N-]=[N+]=Nc1ccccc1Oc1ccccc1`, the GI50 [1] was > 100 µM (inactive), the GI50 [2] was > 100 µM (inactive) and the GI50 [3] was > 100 µM (inactive). For the same compound, the GI50 [4] was > 100 µM (inactive), the GI50 [5] was > 100 µM (inactive) and the GI50 [6] was greater than 100 µM. For the same compound, the GI50 [7] was > 100 µM (inactive), the GI50 [8] was > 100 µM (inactive) and the GI50 [9] was > 100 µM (inactive). For the same compound, the GI50 [10] was > 100 µM (inactive), the GI50 [11] was > 100 µM (inactive) and the GI50 [12] was > 100 µM (inactive). The GI50 [13] was > 100 µM (inactive), the GI50 [14] was > 100 µM (inactive) and the GI50 [15] was > 100 µM (inactive). The GI50 [16] was > 100 µM (inactive), the GI50 [17] was > 100 µM (inactive) and the GI50 [18] was > 100 µM (inactive). For the same compound, the GI50 [19] was > 100 µM (inactive), the GI50 [20] was > 100 µM (inactive) and the GI50 [21] was > 100 µM (inactive). For the same compound, the GI50 [22] was > 100 µM (inactive), the GI50 [23] was > 100 µM (inactive) and the GI50 [24] was > 100 µM (inactive). The GI50 [25] was > 100 µM (inactive), the GI50 [26] was > 100 µM (inactive) and the GI50 [27] was > 100 µM (inactive). For the same compound, the GI50 [28] was > 100 µM (inactive), the GI50 [29] was > 100 µM (inactive) and the GI50 [30] was > 100 µM (inactive). The GI50 [31] was > 100 µM (inactive), the GI50 [32] was > 100 µM (inactive) and the GI50 [33] was > 100 µM (inactive). The GI50 [34] was > 100 µM (inactive), the GI50 [35] was > 100 µM (inactive) and the GI50 [36] was > 100 µM (inactive). For the same compound, the GI50 [37] was > 100 µM (inactive), the GI50 [38] was > 100 µM (inactive) and the GI50 [39] was > 100 µM (inactive). For the same compound, the GI50 [40] was > 100 µM (inactive), the GI50 [41] was > 100 µM (inactive) and the GI50 [42] was > 100 µM (inactive). For the same compound, the GI50 [43] was > 100 µM (inactive), the GI50 [44] was > 100 µM (inactive) and the GI50 [45] was > 100 µM (inactive). For the same compound, the GI50 [46] was > 100 µM (inactive), the GI50 [47] was > 100 µM (inactive) and the GI50 [48] was > 100 µM (inactive). For the same compound, the GI50 [49] was > 100 µM (inactive), the GI50 [50] was > 100 µM (inactive) and the GI50 [51] was > 100 µM (inactive). The GI50 [52] was > 100 µM (inactive) and the GI50 [53] was > 100 µM (inactive).

`CN(C)c1ccc(C(C#N)NNC(=O)Cc2ccccc2)cc1` (stereo unspecified) was tested, and the GI50 [1] was > 100 µM (inactive), the GI50 [2] was > 100 µM (inactive) and the GI50 [3] was > 100 µM (inactive). For the same compound, the GI50 [4] was > 100 µM (inactive), the GI50 [5] was > 100 µM (inactive) and the GI50 [6] was greater than 100 µM. The GI50 [7] was > 100 µM (inactive), the GI50 [8] was > 100 µM (inactive) and the GI50 [9] was > 100 µM (inactive). The GI50 [10] was > 100 µM (inactive), the GI50 [11] was > 100 µM (inactive) and the GI50 [54] was > 100 µM (inactive). The GI50 [12] was > 100 µM (inactive), the GI50 [13] was > 100 µM (inactive) and the GI50 [14] was > 100 µM (inactive). The GI50 [15] was > 100 µM (inactive), the GI50 [16] was > 100 µM (inactive) and the GI50 [17] was > 100 µM (inactive). For the same compound, the GI50 [18] was > 100 µM (inactive), the GI50 [19] was > 100 µM (inactive) and the GI50 [55] was > 100 µM (inactive). The GI50 [20] was > 100 µM (inactive), the GI50 [56] was > 100 µM (inactive) and the GI50 [23] was > 100 µM (inactive). For the same compound, the GI50 [57] was > 100 µM (inactive), the GI50 [25] was > 100 µM (inactive) and the GI50 [26] was > 100 µM (inactive). The GI50 [27] was > 100 µM (inactive), the GI50 [28] was > 100 µM (inactive) and the GI50 [29] was > 100 µM (inactive). The GI50 [30] was > 100 µM (inactive), the GI50 [31] was > 100 µM (inactive) and the GI50 [32] was > 100 µM (inactive). The GI50 [33] was > 100 µM (inactive), the GI50 [34] was > 100 µM (inactive) and the GI50 [35] was > 100 µM (inactive). The GI50 [36] was > 100 µM (inactive), the GI50 [38] was > 100 µM (inactive) and the GI50 [39] was > 100 µM (inactive). The GI50 [40] was > 100 µM (inactive), the GI50 [41] was > 100 µM (inactive) and the GI50 [42] was > 100 µM (inactive). The GI50 [44] was > 100 µM (inactive), the GI50 [58] was > 100 µM (inactive) and the GI50 [45] was > 100 µM (inactive). The GI50 [46] was > 100 µM (inactive), the GI50 [47] was > 100 µM (inactive) and the GI50 [48] was > 100 µM (inactive). The GI50 [49] was > 100 µM (inactive), the GI50 [50] was > 100 µM (inactive) and the GI50 [51] was > 100 µM (inactive). For the same compound, the GI50 [52] was > 100 µM (inactive) and the GI50 [53] was > 100 µM (inactive).

`CCN(CC)CCCNC(=O)Cc1ccccc1Nc1c(Cl)cccc1Cl` was tested, and the GI50 [2] was 16.8 µM (inactive), the GI50 [3] was 16.1 µM (inactive) and the GI50 [4] was 17.9 µM (inactive). The GI50 [5] was 13.7 µM (inactive), the GI50 [6] was 14.9 µM and the GI50 [7] was 15.3 µM (inactive). The GI50 [8] was 13.7 µM (inactive), the GI50 [9] was 14.5 µM (inactive) and the GI50 [10] was 13.6 µM (inactive). For the same compound, the GI50 [11] was 8.75 µM (inactive), the GI50 [54] was 11.7 µM (inactive) and the GI50 [12] was 12.4 µM (inactive). For the same compound, the GI50 [13] was 3.81 µM (inactive), the GI50 [14] was 3.85 µM (inactive) and the GI50 [15] was 18.4 µM (inactive). The GI50 [16] was 12.5 µM (inactive), the GI50 [17] was 14.3 µM (inactive) and the GI50 [18] was 19.8 µM (inactive). The GI50 [19] was 14.2 µM (inactive), the GI50 [20] was 16.2 µM (inactive) and the GI50 [21] was 3.01 µM (inactive). The GI50 [22] was 8.13 µM (inactive), the GI50 [23] was 15.9 µM (inactive) and the GI50 [25] was 0.465 µM (active). The GI50 [26] was 12.3 µM (inactive), the GI50 [27] was 14 µM (inactive) and the GI50 [28] was 4.03 µM (inactive). For the same compound, the GI50 [30] was 16 µM (inactive), the GI50 [32] was 15 µM (inactive) and the GI50 [33] was 7.67 µM (inactive). The GI50 [34] was 4.48 µM (inactive), the GI50 [35] was 8.53 µM (inactive) and the GI50 [36] was 15.7 µM (inactive). For the same compound, the GI50 [37] was 13.7 µM (inactive), the GI50 [38] was 18.5 µM (inactive) and the GI50 [39] was 4.97 µM (inactive). For the same compound, the GI50 [40] was 11.4 µM (inactive), the GI50 [41] was 13 µM (inactive) and the GI50 [42] was 14.9 µM (inactive). The GI50 [43] was 16.9 µM (inactive), the GI50 [44] was 18.3 µM (inactive) and the GI50 [58] was 15.8 µM (inactive). The GI50 [46] was 9.48 µM (inactive), the GI50 [47] was 16 µM (inactive) and the GI50 [48] was 11.8 µM (inactive). For the same compound, the GI50 [49] was 2.82 µM (inactive), the GI50 [50] was 5.6 µM (inactive) and the GI50 [51] was 18 µM (inactive). The GI50 [52] was 11.2 µM (inactive) and the GI50 [53] was 11.4 µM (inactive).

Source: ChEMBL document CHEMBL1201862, “PubChem BioAssay data set” (2004)
